“And” between values parts separate entries of the source, which are not always exact repeats. Equal entries are not always repeated. Toxic doses and inconclusive results are not listed. Rule as the data show it: active = T/C of 150% or more; inactive = T/C below 125%. Square brackets hold non-standard residues; d marks the D form. Peptide text beside a SMILES is read from it. * marks the point of attachment. ξ: configuration not given here. Cbz = O=C(OCc1ccccc1)*; ξD = NC(CC(=O)O)C(=O)O
Test system: L1210 leukemia ip in BDF1 mice, survival T/C
Assay: NCI In Vivo Anticancer Drug Screen. Data for tumor model L1210 Leukemia (intraperitoneal) in B6D2F1 (BDF1) mice
Settings: endpoint: mean survival time, higher = longer survival
Summary of the method: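 Antitumor effect is assessed in tumor-bearing animals. Survival in the compound arm is compared with a vehicle-dosed control arm and expressed as their quotient.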

[1] = dose: 100.0 mg/kg/injection, schedule: Q01DX001 (ip), vehicle: Klucel (hydroxypropylcellulose) (HPC)
[2] = dose: 200.0 mg/kg/injection, schedule: Q01DX001 (ip), vehicle: Klucel (hydroxypropylcellulose) (HPC)
[3] = dose: 100.0 mg/kg/injection, schedule: Q01DX001 (ip), vehicle: saline
[4] = dose: 200.0 mg/kg/injection, schedule: Q01DX001 (ip), vehicle: saline
[5] = dose: 400.0 mg/kg/injection, schedule: Q01DX001 (ip), vehicle: saline
[6] = dose: 100.0 mg/kg/injection, schedule: Q04DX003 (ip), vehicle: Klucel (hydroxypropylcellulose) (HPC)
[7] = dose: 200.0 mg/kg/injection, schedule: Q04DX003 (ip), vehicle: Klucel (hydroxypropylcellulose) (HPC)
[8] = dose: 400.0 mg/kg/injection, schedule: Q04DX003 (ip), vehicle: Klucel (hydroxypropylcellulose) (HPC)
[9] = dose: 100.0 mg/kg/injection, schedule: Q01DX001 (ip), vehicle: carboxymethylcellulose (CMC)
[10] = dose: 200.0 mg/kg/injection, schedule: Q01DX001 (ip), vehicle: carboxymethylcellulose (CMC)
[11] = dose: 400.0 mg/kg/injection, schedule: Q01DX001 (ip), vehicle: carboxymethylcellulose (CMC)
[12] = dose: 100.0 mg/kg/injection, schedule: Q04DX002 (ip), vehicle: Klucel (hydroxypropylcellulose) (HPC)
[13] = dose: 200.0 mg/kg/injection, schedule: Q04DX002 (ip), vehicle: Klucel (hydroxypropylcellulose) (HPC)
[14] = dose: 400.0 mg/kg/injection, schedule: Q04DX002 (ip), vehicle: Klucel (hydroxypropylcellulose) (HPC)
[15] = dose: 100.0 mg/kg/injection, schedule: Q01DX009 (ip), vehicle: Klucel (hydroxypropylcellulose) (HPC)
[16] = dose: 200.0 mg/kg/injection, schedule: Q01DX009 (ip), vehicle: Klucel (hydroxypropylcellulose) (HPC)

Measured: T/C

C=C(C(=O)c1ccccc1)C(NC(C)(C)C)c1ccccc1 (stereo unspecified)
inactive: dose: 5.0 mg/kg/injection, schedule: Q01DX001 (ip), vehicle: saline 95 % of control | dose: 10.0 mg/kg/injection, schedule: Q01DX001 (ip), vehicle: saline 98 % of control | dose: 20.0 mg/kg/injection, schedule: Q01DX001 (ip), vehicle: saline 95 % of control

C/C(Cl)=C1\CCCC\C1=N\NC(N)=O
inactive: [1] 95 % of control | [2] 98 % of control | dose: 400.0 mg/kg/injection, schedule: Q01DX001 (ip), vehicle: Klucel (hydroxypropylcellulose) (HPC) 102 % of control

NC(=O)C(CCO)n1ccc(N)nc1=O (stereo unspecified)
inactive: [3] 94 % of control | [4] 98 % of control | [5] 102 % of control

Cc1ccc(/C(Cc2ccccc2)=N\NC(N)=O)cc1
inactive: [3] 92 % of control | [4] 98 % of control | [5] 98 % of control

CC(=O)CC(=O)CCc1ccccc1.CC(=O)CC(=O)CCc1ccccc1.[Cu]
inactive: dose: 75.0 mg/kg/injection, schedule: Q01DX001 (ip), vehicle: carboxymethylcellulose (CMC) 91 % of control

CC1OC(n2cnc3c(N)ncnc32)C(O)C1O (stereo unspecified)
inactive: dose: 50.0 mg/kg/injection, schedule: Q01DX001 (sc), vehicle: carboxymethylcellulose (CMC) 104 % of control | dose: 100.0 mg/kg/injection, schedule: Q01DX001 (sc), vehicle: carboxymethylcellulose (CMC) 90 % of control | dose: 200.0 mg/kg/injection, schedule: Q01DX001 (sc), vehicle: carboxymethylcellulose (CMC) 93 % of control | dose: 400.0 mg/kg/injection, schedule: Q01DX001 (sc), vehicle: carboxymethylcellulose (CMC) 106 % of control

Cc1cc(Cl)ccc1NC(=O)Nc1ccc(Cl)c(Cl)c1
inactive: [6] 88 % of control | [7] 90 % of control | [8] 98 % of control and 88 % of control

Cn1c(=O)c2[nH]c(CCCSSCCCc3nc4c([nH]3)c(=O)n(C)c(=O)n4C)nc2n(C)c1=O
inactive: [3] 96 % of control | [4] 96 % of control | [5] 96 % of control

O=[N+]([O-])c1ccc(-n2ncc3cccnc32)c([N+](=O)[O-])c1
inactive: dose: 75.0 mg/kg/injection, schedule: Q01DX001 (ip), vehicle: other 94 % of control | dose: 150.0 mg/kg/injection, schedule: Q01DX001 (ip), vehicle: other 100 % of control | dose: 300.0 mg/kg/injection, schedule: Q01DX001 (ip), vehicle: other 90 % of control

CC1(C)C2CCC(O)(C(=O)O)C1C2 (stereo unspecified)
inactive: dose: 50.0 mg/kg/injection, schedule: Q01DX001 (ip), vehicle: carboxymethylcellulose (CMC) 106 % of control | [9] 91 % of control | [10] 91 % of control | [11] 100 % of control

Nn1c(=S)[nH]n2cnnc12
inactive: [9] 98 % of control | [10] 106 % of control | [11] 95 % of control

Cc1ccc(C(=O)CCN2CCOCC2)c(C)c1
inactive: [3] 102 % of control | [4] 96 % of control | [5] 96 % of control

CCN(CC)CCNc1ccccc1[N+](=O)[O-]
inactive: dose: 75.0 mg/kg/injection, schedule: Q01DX001 (ip), vehicle: acid diluted with saline 100 % of control | dose: 75.0 mg/kg/injection, schedule: Q04DX003 (ip), vehicle: acid diluted with saline 103 % of control | dose: 150.0 mg/kg/injection, schedule: Q01DX001 (ip), vehicle: acid diluted with saline 102 % of control | dose: 150.0 mg/kg/injection, schedule: Q04DX003 (ip), vehicle: acid diluted with saline 95 % of control | dose: 300.0 mg/kg/injection, schedule: Q01DX001 (ip), vehicle: acid diluted with saline 110 % of control

Cc1ccc(/C(=C/c2ccc([N+](=O)[O-])cc2)C(=O)O)cc1
inactive: [6] 102 % of control | [7] 98 % of control | [8] 95 % of control

COc1ccc(C(C)S(=O)(=O)c2ccc(C)cc2)cc1OC (stereo unspecified)
inactive: [9] 97 % of control | [10] 97 % of control | [11] 94 % of control

N#CCc1ccc2[nH]c3c(c2c1)CCCC3
inactive: [12] 106 % of control | [13] 92 % of control | [14] 92 % of control

O=C(O)CC(NC(=O)CNC(=O)OCc1ccccc1)C(=O)O (stereo not drawn) (Cbz-Gly-[ξD]-OH)
inactive: dose: 50.0 mg/kg/injection, schedule: Q01DX009 (ip), vehicle: Klucel (hydroxypropylcellulose) (HPC) 93 % of control | dose: 50.0 mg/kg/injection, schedule: Q04DX003 (ip), vehicle: Klucel (hydroxypropylcellulose) (HPC) 94 % of control | [15] 93 % of control | [6] 98 % of control | [16] 95 % of control | [7] 94 % of control

Cc1cc(C)c(C)c(NC(=O)NCCCl)c1C
inactive: [1] 92 % of control | [2] 88 % of control

N[C@H](Cc1c[nH]c2ccccc12)C(=O)O
inactive: dose: 100.0 mg/kg/injection, schedule: Q01DX009 (ip), vehicle: acetone 95 % of control | dose: 200.0 mg/kg/injection, schedule: Q01DX009 (ip), vehicle: acetone 104 % of control | dose: 400.0 mg/kg/injection, schedule: Q01DX009 (ip), vehicle: acetone 102 % of control | dose: 800.0 mg/kg/injection, schedule: Q01DX009 (ip), vehicle: acetone 95 % of control

Cc1ccc2c(ccc(/C=C/c3ccnc4c(O)cccc34)[n+]2C)c1
inactive: dose: 25.0 mg/kg/injection, schedule: Q01DX001 (ip), vehicle: saline 99 % of control | dose: 35.0 mg/kg/injection, schedule: Q01DX001 (ip), vehicle: saline 111 % of control | dose: 55.0 mg/kg/injection, schedule: Q01DX001 (ip), vehicle: saline 119 % of control | dose: 85.0 mg/kg/injection, schedule: Q01DX001 (ip), vehicle: saline 123 % of control | dose: 132.0 mg/kg/injection, schedule: Q01DX001 (ip), vehicle: saline 115 % of control and 121 % of control | dose: 198.0 mg/kg/injection, schedule: Q01DX001 (ip), vehicle: saline 117 % of control

Cc1cc(CCl)c(Br)cc1CCl
inactive: [12] 100 % of control | [13] 100 % of control | [14] 107 % of control

Cc1cccc(/C(=C/c2ccc([N+](=O)[O-])cc2)C(=O)Nc2ccc(S(=O)(=O)F)cc2)c1
inactive: dose: 100.0 mg/kg/injection, schedule: Q01DX009 (ip), vehicle: saline with Tween-80 96 % of control | dose: 200.0 mg/kg/injection, schedule: Q01DX009 (ip), vehicle: saline with Tween-80 97 % of control | dose: 400.0 mg/kg/injection, schedule: Q01DX009 (ip), vehicle: saline with Tween-80 96 % of control

Cc1c(CBr)c(=O)[nH]c2ccccc12
inactive: [3] 100 % of control | [4] 98 % of control

COc1ccc(C(=O)C(C)CN2CCOCC2)cc1 (stereo unspecified)
inactive: [3] 102 % of control | [4] 105 % of control | [5] 102 % of control

COC(=O)c1cc(Br)ccc1OCC(=O)Nc1ccccc1
inactive: dose: 100.0 mg/kg/injection, schedule: Q04DX003 (ip), vehicle: saline with Tween-80 94 % of control | dose: 200.0 mg/kg/injection, schedule: Q04DX003 (ip), vehicle: saline with Tween-80 94 % of control | dose: 400.0 mg/kg/injection, schedule: Q04DX003 (ip), vehicle: saline with Tween-80 91 % of control

CC1CCCC(C[N+](C)(C)C)C1=O (stereo unspecified)
inactive: dose: 100.0 mg/kg/injection, schedule: Q04DX003 (ip), vehicle: saline 93 % of control | dose: 200.0 mg/kg/injection, schedule: Q04DX003 (ip), vehicle: saline 101 % of control

c1ccc(COP(c2ccccc2)c2ccccc2)cc1
inactive: dose: 25.6 mg/kg/injection, schedule: Q04DX002 (ip), vehicle: saline with Tween-80 100 % of control | dose: 64.0 mg/kg/injection, schedule: Q04DX002 (ip), vehicle: saline with Tween-80 96 % of control | dose: 160.0 mg/kg/injection, schedule: Q04DX002 (ip), vehicle: saline with Tween-80 100 % of control | dose: 400.0 mg/kg/injection, schedule: Q04DX002 (ip), vehicle: saline with Tween-80 100 % of control

CC12CCC(O)CC1CCC1C3CC/C(=C\c4ccco4)C(=O)C3CCC12 (stereo unspecified)
inactive: dose: 50.0 mg/kg/injection, schedule: Q01DX001 (sc), vehicle: steriod suspending solution 105 % of control | dose: 100.0 mg/kg/injection, schedule: Q01DX001 (sc), vehicle: steriod suspending solution 89 % of control | dose: 200.0 mg/kg/injection, schedule: Q01DX001 (sc), vehicle: steriod suspending solution 91 % of control

Cn1c(=O)c2[nH]c(Br)nc2n(C)c1=O
inactive: [15] 90 % of control | [6] 98 % of control | [16] 93 % of control | [7] 111 % of control | [8] 106 % of control

Source: PubChem BioAssay AID248 (DTP/NCI, 2004)
